The solubility is the concentration that dissolves in the medium under given conditions.

Data on two compounds can be found in patent US20220008382A1, “ALCOHOL ANTIDOTE” (Evanium Healthcare GmbH, priority 2018, published 2022).

For series [1], the system named is GABAA receptor α+/β− interface. To be noted: cited from earlier work.
For series [2], the system named is GABAA receptor β+/α− interface at the amino acid β-265ASN. To be noted: cited from earlier work.
A short description of series [3]: Saturation solubility in dist. water (HPLC), β-CD complexes. The format is physicochemical. To be noted: distilled water, thermodynamic from solid, saturated solution shaken 60 minutes, HPLC DAD-254 nm, read-out: Solubility of taxifolin. Here is the method:
Saturation Solubility in Dist. Water (HPLC)
The last most important point in terms of comparing the production methods to one another is solubility in distilled water. The solubility of the complex has a direct influence on bioavailability, because only dissolved complexes/active ingredients can pass the epithelial cells of the GI tract. Moreover, the samples were examined for rel. substances in order to identify possible degradation of the active ingredient during the production process.
10 mg taxifolin (Lavitol® 98.9% purity) was placed in a vial with 5 ml dist. water to make a saturated solution and shaken for 60 minutes. The solution was then transferred to a vial using a syringe with an HPLC filter (0.22 μm) and then measured undiluted (HPLC DAD-254 nm).
500 mg of the sample was placed in a vial with 6 ml dist. water to make a saturated solution and shaken for 60 minutes. The solution was then transferred to a vial using a syringe with an HPLC filter (0.22 μm), diluted 10:1 with distilled water to prevent oversaturation, and then measured (HPLC DAD-254 nm). The taxifolin concentration was calculated in mg/ml based on the peak area, taking into account the dilution.

Series [4] can be described thus: Saturation solubility in dist. water (HPLC), γ-CD complexes. To be noted: thermodynamic from solid, saturated solution shaken 60 minutes, HPLC DAD-254 nm. The format is physicochemical.
Method: 10 mg taxifolin (Lavitol® 98.9% purity) was placed in a vial with 5 ml dist. water to make a saturated solution and shaken for 60 minutes. The solution was then transferred to a vial by means of a syringe with an HPLC filter (0.22 μm) and then measured (HPLC DAD-254 nm).
300 mg of the sample was placed in a vial with 5 ml dist. water to produce a saturated solution and shaken for 60 minutes. The solution was then transferred to a vial using a syringe with an HPLC filter (0.22 μm) and then measured undiluted (HPLC DAD-254 nm).
Series [5] is described as follows: Solubility of the solid dispersion with Eudragit E in 0.1 N HCl (simulated gastric juices). The format is physicochemical. To be noted: simulated gastric fluid, thermodynamic from solid, saturated solution, room temperature, HPLC, read-out: Solubility of taxifolin. The protocol: The last most important point for comparing the production methods to one another is solubility in simulated gastric juices. That is, the solubility of the complex directly influences bioavailability, because only dissolved active ingredients can pass the epithelial cells of the GI tract
10 mg taxifolin (Lavitol® 98.9% purity) was placed in a vial with 5 ml 0.1 N HCl to make a saturated solution and shaken for 60 minutes. The solution was then transferred into a vial by means of a syringe with an HPLC filter (0.22 μm) and then measured.
Saturated solutions of the samples in 0.1 molar HCl solution were prepared at room temperature. The solution was then transferred to a vial by means of a syringe with an HPLC filter (0.22 μm), appropriately diluted and the taxifolin concentration of the solution was determined by HLPC.

Series [6] can be described thus: Dissolution behaviour, USP apparatus II (paddle). The format is physicochemical. To be noted: 100 rpm; for Mean release: N=2, 500 ml 0.1 N HCl. The protocol: In order to check the dissolution behaviour of the final formulations, dissolution studies of the cyclodextrin and the Eudragit formulation against pure taxifolin were carried out.
Method: In order to determine the dissolution behaviour, the usual procedure according to pharmacopoeia was chosen.
USP apparatus II (paddle); 100 rpm; medium: 500 ml 0.1 N HCl; 2 vessels per sample (N=2); 7 sampling points: 0 min, 5 min, 10 min, 15 min, 20 min, 30 min, 60 min; weighed in: formulation as a powder corresponding to 100 mg taxifolin; detection by HPLC
The following formulations were tested: • taxifolin (Ametis Lavitol®, 98.8% purity) • Eudragit® E CSE 2:1 (solid dispersion formulation) • FD β (cyclodextrin formulation)

A short description of series [7]: Solubility of taxifolin in organic solvents. The format is physicochemical.
For series [8] the following is noted: in vivo; cited from earlier work.

Converted amounts (≈) assume the structure as drawn.

Turning to `CCO` [ethanol], in series [1], the “Concentration from which the high-affinity binding site is occupied” value is no less than 3 mM. The “Concentration from which the low-affinity binding site is occupied” value in series [2] is given as no less than 50 mM.

As for `O=C1c2c(O)cc(O)cc2O[C@H](c2ccc(O)c(O)c2)[C@H]1O` [Taxifolin reference, (+)taxifolin], the solubility at 60 min in series [3] was 750 µg/mL (≈ 2460 µM); in series [4] it was 750 µg/mL (≈ 2460 µM); in series [5], 693 µg/mL (≈ 2280 µM). For the same compound, the Mean release in series [6] (5 min) came to 29%; in series [6] (10 min) it was 46%; in series [6] (15 min, listed as taxifolin), 60%; in series [6] (15 min, listed as taxifolin (reference)), 60%; in series [6] (20 min), 69%; in series [6] (30 min), 79%. In series [6] (60 min), the Mean release came to 92%. For the same compound, the Release in series [6] (5 min, vessel 1, 500 ml 0.1 N HCl) is 28.2%; in series [6] (5 min, vessel 2, 500 ml 0.1 N HCl), 29.2%; in series [6] (10 min, vessel 1, 500 ml 0.1 N HCl) it was 46.4%; in series [6] (10 min, vessel 2, 500 ml 0.1 N HCl), 44.8%; in series [6] (15 min, vessel 1, 500 ml 0.1 N HCl), 61.1%; in series [6] (15 min, vessel 2, 500 ml 0.1 N HCl), 58.7%. The Release in series [6] (20 min, vessel 1, 500 ml 0.1 N HCl) is on record as 70.4%; in series [6] (20 min, vessel 2, 500 ml 0.1 N HCl) it was 67.5%; in series [6] (30 min, vessel 1, 500 ml 0.1 N HCl) it was 80.8%; in series [6] (30 min, vessel 2, 500 ml 0.1 N HCl), 77.4%; in series [6] (60 min, vessel 1, 500 ml 0.1 N HCl), 90.8%; in series [6] (60 min, vessel 2, 500 ml 0.1 N HCl), 93.1%. Also, the “Solubility in acetone and ethyl acetate” value in series [7] is given as “very soluble”. In addition, the “Solubility in diethyl ether” value in series [7] is on record as “insoluble”. In series [8], the NOAEL level is recorded as 1500 mg/kg.
